Assay results taken from article PMC5397484, “Gel-Based Purification and Biochemical Study of Laccase Isozymes from Ganoderma sp. and Its Role in Enhanced Cotton Callogenesis” (Frontiers in Microbiology, 2017).
Read-outs that look alike come from different tables or passages of the source. Blank lines part the entries; values can stand above or below the compound they belong to.

How the values were obtained:
Test in all cases: absorbance […] nm, Eadie-Hofstee plot
Format in all cases: biochemical, Ganoderma lucidum
Glac L2 [1] = system: T1, Glac L2; conditions: citrate-phosphate pH 4.0 (methods; table title says optimal pH); 0.1-0.8 mM substrate; read-out: O-tolidine / Km
T1 construct: gene GL16398; native secreted isozyme, copper-induced culture, native-PAGE purified; 40-66 kDa range for all isozymes, described as multimeric; gene not assigned (GL tags are of another genome strain)

Glac L4 [2] = system: T2, Glac L4; conditions: citrate-phosphate pH 4.0 (methods; table title says optimal pH); 0.1-0.8 mM substrate; read-out: O-tolidine / Km
T2 construct: gene GL16398; native secreted isozyme, copper-induced culture, native-PAGE purified; 40-66 kDa range for all isozymes, described as multimeric; gene not assigned (GL tags are of another genome strain)

Glac L5 [3] = system: T3, Glac L5; conditions: citrate-phosphate pH 4.0 (methods; table title says optimal pH); 0.1-0.8 mM substrate; read-out: O-tolidine / Km
T3 construct: gene GL16398; native secreted isozyme, copper-induced culture, native-PAGE purified; 40-66 kDa range for all isozymes, described as multimeric; gene not assigned (GL tags are of another genome strain)

Glac L3 [4] = system: T4, Glac L3; conditions: citrate-phosphate pH 4.0 (methods; table title says optimal pH); 0.1-0.8 mM substrate; read-out: O-tolidine / Km
T4 construct: gene GL16398; native secreted isozyme, copper-induced culture, native-PAGE purified; 40-66 kDa range for all isozymes, described as multimeric; gene not assigned (GL tags are of another genome strain)

Glac L3 [5] = system: T4, Glac L3; conditions: citrate-phosphate pH 4.0 (methods; table title says optimal pH); 0.5-3.0 mM substrate; read-out: Guaiacol / Km
Glac L2 [6] = system: T1, Glac L2; conditions: citrate-phosphate pH 4.0 (methods; table title says optimal pH); 0.5-3.0 mM substrate; read-out: Guaiacol / Km
Glac L5 [7] = system: T3, Glac L5; conditions: citrate-phosphate pH 4.0 (methods; table title says optimal pH); 0.5-3.0 mM substrate; read-out: Guaiacol / Km
Glac L4 [8] = system: T2, Glac L4; conditions: citrate-phosphate pH 4.0 (methods; table title says optimal pH); 0.5-3.0 mM substrate; read-out: Guaiacol / Km
Glac L3 [9] = system: T4, Glac L3; conditions: 0.1 M sodium acetate pH 5.0 (methods; table title says optimal pH); 0.02-0.5 mM substrate; read-out: ABTS / Km
Glac L2 [10] = system: T1, Glac L2; conditions: 0.1 M sodium acetate pH 5.0 (methods; table title says optimal pH); 0.02-0.5 mM substrate; read-out: ABTS / Km
Glac L5 [11] = system: T3, Glac L5; conditions: 0.1 M sodium acetate pH 5.0 (methods; table title says optimal pH); 0.02-0.5 mM substrate; read-out: ABTS / Km
Glac L4 [12] = system: T2, Glac L4; conditions: 0.1 M sodium acetate pH 5.0 (methods; table title says optimal pH); 0.02-0.5 mM substrate; read-out: ABTS / Km

Structure (SMILES): Cc1cc(-c2ccc(N)c(C)c2)ccc1N [O-tolidine]
Km (Glac L2 [1]): 724 µM
Km (Glac L4 [2]): 365 µM
Km (Glac L5 [3]): 78 µM
Km (Glac L3 [4]): 507 µM

Km (Glac L3 [5]): 80 µM
Km (Glac L2 [6]): 115 µM
Km (Glac L5 [7]): 126 µM
Km (Glac L4 [8]): 96 µM
Structure (SMILES): COc1ccccc1O [guaiacol]

Km (Glac L3 [9]): 81 µM
Km (Glac L2 [10]): 83 µM
Km (Glac L5 [11]): 15 µM
Km (Glac L4 [12]): 50 µM
Structure (SMILES): CCn1c(=NN=c2sc3cc(S(=O)(=O)O)ccc3n2CC)sc2cc(S(=O)(=O)O)ccc21 [ABTS, 2,2′-azino-bis(3-ethylbenzothiazoline-6-sulfonic acid)]
